Patent publication US20140155384A1, “COMPOUNDS AND METHODS OF TREATING DIABETES” (Medivation Technologies, Inc., priority 2011, published 2014)

Key:
[1] = target: T1, human recombinant adrenergic α1D receptor (Homo sapiens, UniProt P25100); assay: Radioligand binding, adrenergic α1D receptor ([3H]Prazosin); details: 0.1 μM compound; HEK-293 cells; 0.6 nM [3H]Prazosin; read-out: Percentage inhibition of ligand binding, Adrenergic α1D
T1 construct: expressed in transfected cells; host or cells: HEK-293
T1 sequence (P25100 1-572): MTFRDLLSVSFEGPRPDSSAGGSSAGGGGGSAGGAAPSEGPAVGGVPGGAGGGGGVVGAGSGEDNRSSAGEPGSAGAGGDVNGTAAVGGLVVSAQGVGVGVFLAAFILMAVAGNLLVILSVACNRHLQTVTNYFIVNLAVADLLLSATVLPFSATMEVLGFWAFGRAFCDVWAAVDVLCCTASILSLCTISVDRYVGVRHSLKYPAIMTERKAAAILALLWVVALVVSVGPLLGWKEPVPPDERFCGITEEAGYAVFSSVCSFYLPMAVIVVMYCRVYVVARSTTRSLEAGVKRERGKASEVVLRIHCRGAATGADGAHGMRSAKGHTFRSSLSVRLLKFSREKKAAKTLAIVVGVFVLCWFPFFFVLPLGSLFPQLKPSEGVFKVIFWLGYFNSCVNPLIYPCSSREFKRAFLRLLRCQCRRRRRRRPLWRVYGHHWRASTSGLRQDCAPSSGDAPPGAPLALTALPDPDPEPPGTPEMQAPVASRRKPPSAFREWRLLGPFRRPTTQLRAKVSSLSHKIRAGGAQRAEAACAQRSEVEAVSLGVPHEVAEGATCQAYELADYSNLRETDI
Method: Compounds were incubated with 0.6 nM [3H]Prazosin for 60 min at 25° C. Non-specific binding was estimated in the presence of 10 μM phentolamine. Receptor proteins were filtered and washed, the filters were then counted to determine [3H]Prazosin specifically bound. Compounds were screened at 1 μM or lower, using 1% DMSO as vehicle. Biochemical assay results are presented as the percent inhibition of specific binding in Table 2.

[2] = target: T2, human recombinant adrenergic α2A receptor (Homo sapiens, UniProt P08913); assay: Radioligand binding, adrenergic α2A receptor ([3H]MK-912); details: 0.1 μM compound; Sf9 cells; 1 nM [3H]MK-912; read-out: Percentage inhibition of ligand binding, Adrenergic α2A
T2 construct: expressed in transfected cells; host or cells: insect Sf9 cells
T2 sequence (P08913 1-465): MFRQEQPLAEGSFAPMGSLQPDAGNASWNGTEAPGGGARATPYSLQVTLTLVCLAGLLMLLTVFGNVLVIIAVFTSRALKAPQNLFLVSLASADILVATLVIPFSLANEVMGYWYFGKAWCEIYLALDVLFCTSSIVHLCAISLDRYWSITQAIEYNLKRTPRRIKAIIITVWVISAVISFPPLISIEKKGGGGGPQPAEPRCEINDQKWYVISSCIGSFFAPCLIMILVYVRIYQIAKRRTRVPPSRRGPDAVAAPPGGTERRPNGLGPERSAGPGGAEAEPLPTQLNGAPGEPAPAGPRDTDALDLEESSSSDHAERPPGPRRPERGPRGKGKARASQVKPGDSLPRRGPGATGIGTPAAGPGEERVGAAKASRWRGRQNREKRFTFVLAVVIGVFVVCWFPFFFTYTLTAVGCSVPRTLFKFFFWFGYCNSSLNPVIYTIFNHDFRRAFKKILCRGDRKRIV
In short: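 Percent inhibition of specific [3H]MK-912 (1 nM) binding measured by filtration counting, compounds tested at ≤1 μM in 1% DMSO. Receptor: human α2A from Sf9 cells; incubation 60 min, 25 °C, pH 7.4; 10 μM WB-4101 defined nonspecific binding.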

[3] = target: T3, human recombinant adrenergic α2B receptor (Homo sapiens, UniProt P18089); assay: Radioligand binding, adrenergic α2B receptor ([3H]Rauwolscine); details: 0.1 μM compound, CHO-K1 cells, read-out: Percentage inhibition of ligand binding, Adrenergic α2B
T3 construct: expressed in transfected cells; host or cells: CHO-K1
T3 sequence (P18089 1-450): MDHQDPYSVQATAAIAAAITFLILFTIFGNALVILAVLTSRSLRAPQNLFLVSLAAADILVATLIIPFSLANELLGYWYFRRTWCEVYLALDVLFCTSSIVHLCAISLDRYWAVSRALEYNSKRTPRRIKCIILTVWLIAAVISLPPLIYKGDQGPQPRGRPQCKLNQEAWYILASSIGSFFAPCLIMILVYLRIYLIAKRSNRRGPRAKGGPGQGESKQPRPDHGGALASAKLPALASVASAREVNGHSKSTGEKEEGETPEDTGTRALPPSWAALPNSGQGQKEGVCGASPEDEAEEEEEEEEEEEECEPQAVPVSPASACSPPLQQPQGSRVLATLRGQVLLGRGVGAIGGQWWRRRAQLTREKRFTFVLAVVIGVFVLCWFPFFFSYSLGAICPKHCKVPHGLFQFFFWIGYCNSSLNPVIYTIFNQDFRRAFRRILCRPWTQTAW
In short: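 Percent inhibition of specific [3H]Rauwolscine (2.5 nM) binding, compounds at ≤1 μM, 1% DMSO vehicle, 10 μM prazosin defining nonspecific. Receptor: human α2B expressed in CHO-K1 cells, 60 min incubation at 25 °C in Tris-HCl pH 7.4 buffer (MgCl2, EDTA, BSA); filtered, washed, counted.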

[4] = target: T4, rat adrenergic α1B receptor (Rattus norvegicus, UniProt P15823); assay: Radioligand binding, adrenergic α1B receptor ([3H]Prazosin); details: 0.1 μM compound, Wistar rat liver, read-out: Percentage inhibition of ligand binding, Adrenergic α1B
T4 construct: rat adrenergic α1B receptor obtained from Wistar Rat liver; from tissue; host or cells: Wistar rat liver
T4 sequence (P15823 1-515): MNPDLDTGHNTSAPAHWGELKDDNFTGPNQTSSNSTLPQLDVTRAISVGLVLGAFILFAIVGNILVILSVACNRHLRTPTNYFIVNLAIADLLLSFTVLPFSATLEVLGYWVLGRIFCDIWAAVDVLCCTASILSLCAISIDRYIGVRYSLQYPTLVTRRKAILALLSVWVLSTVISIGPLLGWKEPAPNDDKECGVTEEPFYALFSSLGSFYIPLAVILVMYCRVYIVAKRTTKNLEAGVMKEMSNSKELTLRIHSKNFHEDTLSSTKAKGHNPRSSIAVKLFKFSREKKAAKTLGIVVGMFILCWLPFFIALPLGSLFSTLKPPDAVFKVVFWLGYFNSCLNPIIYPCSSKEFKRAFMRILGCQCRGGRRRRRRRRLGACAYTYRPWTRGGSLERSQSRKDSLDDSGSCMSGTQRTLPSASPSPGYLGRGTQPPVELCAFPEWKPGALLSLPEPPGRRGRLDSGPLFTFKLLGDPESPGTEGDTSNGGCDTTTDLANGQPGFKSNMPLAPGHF
In short: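 Wistar rat liver α1B receptor preparation incubated with 0.25 nM [3H]prazosin and compound for 60 min at 25° C in 50 mM Tris-HCl pH 7.4, 0.5 mM EDTA; nonspecific binding defined with 10 μM phentolamine.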

Row | inhibition at 0.1 µM [1] | inhibition at 0.1 µM [2] | inhibition at 0.1 µM [3] | inhibition at 0.1 µM [4] | SMILES
1 | 30% | 38% | 73% | 43% | Cc1ccc2c(c1)c1c(n2-c2ccc(-c3cnn(C)c3)cn2)CCN(C)C1 [Compound No. 134, 2,8-dimethyl-5-(5-(1-methyl-1H-pyrazol-4-yl)pyridin-2-yl)-2,3,4,5-tetrahydro-1H-pyrido[4,3-b]indole]
2 | 64% | 56% | 99% | 59% | Cc1ccc2c(c1)c1c(n2-c2ccc(-c3cncc4ccccc34)cn2)CCN(C)C1 [Compound No. 135, 5-(5-(isoquinolin-4-yl)pyridin-2-yl)-2,8-dimethyl-2,3,4,5-tetrahydro-1H-pyrido[4,3-b]indole]
3 | 59% | 59% | 105% | 70% | Cc1ccc2c(c1)c1c(n2-c2ccc(-c3ccc4c(ccn4C)c3)cn2)CCN(C)C1 [Compound No. 136, 2,8-dimethyl-5-(5-(1-methyl-1H-indol-5-yl)pyridin-2-yl)-2,3,4,5-tetrahydro-1H-pyrido[4,3-b]indole]
4 | 74% | 57% | 92% | 72% | Cc1ccc2c(c1)c1c(n2-c2ccc(-c3c(C)noc3C)cn2)CCN(C)C1 [Compound No. 137, 4-(6-(2,8-dimethyl-3,4-dihydro-1H-pyrido[4,3-b]indol-5(2H)-yl)pyridin-3-yl)-3,5-dimethylisoxazole]
5 | 73% | 40% | 82% | 73% | Cc1ccc2c(c1)c1c(n2-c2ccc(-c3cnc(N(C)C)nc3)cn2)CCN(C)C1 [Compound No. 138, 5-(6-(2,8-dimethyl-3,4-dihydro-1H-pyrido[4,3-b]indol-5(2H)-yl)pyridin-3-yl)-N,N-dimethylpyrimidin-2-amine]
6 | 45% | 18% | 59% | 55% | CC(=O)Nc1ccc(-c2ccc(-n3c4c(c5cc(C)ccc53)CN(C)CC4)nc2)cn1 [Compound No. 139, N-(6′-(2,8-dimethyl-3,4-dihydro-1H-pyrido[4,3-b]indol-5(2H)-yl)-3,3′-bipyridin-6-yl)acetamide]
7 | 56% | 70% | 96% | 69% | Cc1ccc2c(c1)c1c(n2-c2ccc(-c3ccc(F)cc3)cn2)CCN(C)C1 [Compound No. 140, 5-(5-(4-fluorophenyl)pyridin-2-yl)-2,8-dimethyl-2,3,4,5-tetrahydro-1H-pyrido[4,3-b]indole]
8 | 50% | 69% | 82% | 62% | Cc1ccc2c(c1)c1c(n2-c2ccc(-c3cccc4ccccc34)cn2)CCN(C)C1 [Compound No. 141, 2,8-dimethyl-5-(5-(naphthalen-1-yl)pyridin-2-yl)-2,3,4,5-tetrahydro-1H-pyrido[4,3-b]indole]
9 | 78% | 59% | 91% | 83% | Cc1ccc2c(c1)c1c(n2-c2ccc(-c3ccc(F)nc3)cn2)CCN(C)C1 [Compound No. 142, 5-(6′-fluoro-3,3′-bipyridin-6-yl)-2,8-dimethyl-2,3,4,5-tetrahydro-1H-pyrido[4,3-b]indole]
10 | 52% | 72% | 95% | 68% | Cc1csc(-c2ccc(-n3c4c(c5cc(C)ccc53)CN(C)CC4)nc2)c1 [Compound No. 144, 2,8-dimethyl-5-(5-(4-methylthiophen-2-yl)pyridin-2-yl)-2,3,4,5-tetrahydro-1H-pyrido[4,3-b]indole]
